The nature of series [1]: Cytotoxicity, inhibition of CEM cell proliferation. It counts as cell-based. Particulars: human, CEM cells (CD4+ T-cells), read-out: toxicity CC50.
Series [2] is described as follows: Hydrolysis in CEM/0 cell extracts. It counts as in vitro ADME. Particulars: human, 37 °C, read-out: CEM/0 cell extracts t1/2 (converted). The method, then:
Next, TetraPPPPro-nucleotides 4–9 were incubated in human CD4^+ T-lymphocyte CEM/0 cell extracts to study their stability and identify the hydrolysis products.
CEM cells were grown in RPMI-1640-based cell culture medium to a final density of ∼3 × 10^6 cells/mL. Cells were centrifuged for 10 min at 1250 rpm at 4 °C and washed twice with cold PBS, and the pellet was resuspended at 10^8 cells/mL and sonicated (Hielscher Ultrasound Techn., 100% amplitude, 3·times for 10 s) to destroy cell integrity. Next, the resulting cell suspension was centrifuged at 10,000 rpm to remove cell debris. Finally, the supernatant was divided into aliquots and frozen at −80 °C.
(§1) 6.0 mM hydrolysis solutions of compounds 4–9 were prepared from 21 μL of 50 mM DMSO stock solutions and 154 μL of DMSO. Two different samples, including 10 μL of water and 10 μL of 6.0 mM hydrolysis solution, were prepared in 2 mL Eppendorf vials. Next, 50 μL of human CEM cell extracts or 50 μL of human citrate plasma were added to the mixture, the reaction was started, and the mixture was incubated at 37 °C for different time periods. The reactions were stopped by the addition of 150 μL of MeOH. The resulting suspension was kept on ice for 5 min, followed by defrosting and centrifugation at 14,000 rpm (Heraeus, Biofuge Pico) for 22 min. The supernatants (80 or 60 μL) were directly injected into HPLC. The calculation of t1/2 was performed analogously to that for the chemical hydrolysis studies.

Series [3] has as its system HIV-2 (ROD). As to the kind of experiment: Anti-HIV replication assay, HIV-2 (ROD) in wild-type CEM/0 cells. The format is cell-based. The settings on record: for selectivity index (SI): CC50/EC50, HIV-2 (ROD) in CEM cells; for EC50: Human immunodeficiency virus 2, CCRF-CEM, wild-type CEM/0 cells, mean ± SD, n = 2–3, read-out: HIV-2 (ROD) EC50. As for the experimental part: (§2) Inhibition of HIV-1(HE)- and HIV-2(ROD)-induced cytopathogenicity in wild-type CEM/0 CEM CD4^+ T-cells and thymidine kinase-deficient CEM/TK^– cell cultures was measured in microtiter 96-well plates containing ∼3 × 10^5 CEM cells/mL infected with 100 CCID50 of HIV per milliliter and containing appropriate dilutions of the test compounds. After 4–5 days of incubation at 37 °C in a CO2-controlled humidified atmosphere, virus-induced cellular effects and syncytia cell formation were examined microscopically.

Series [4] can be described thus: Hydrolysis in citrate-stabilized human plasma. It counts as in vitro ADME. The settings on record: 37 °C, read-out: t1/2 in citrate-stabilized human plasma (converted). The method, then: Finally, the supernatant was divided into aliquots and frozen at −80 °C.
as §1, with “Two” for “6.0 mM hydrolysis solutions of compounds 4–9 were prepared from 21 μL of 50 mM DMSO stock solutions and 154 μL of DMSO. Two”

Series [5] concerns pig liver esterase (PLE). Description: Enzymatic hydrolysis with pig liver esterase (PLE). It counts as in vitro ADME. Particulars: pig liver esterase in phosphate buffer, PLE in phosphate buffer pH 7.3, 37 °C, read-out: PLE t1/2 (converted). As for the experimental part: To confirm the enzymatic hydrolysis process, TetraPPPPro-nucleotides 4–9 bearing different kinds of lipophilic groups attached to the δ-phosph(on)ate group were incubated with PLE in phosphate buffer.
Then, 833 μL of 50 mM phosphate buffer (pH 7.3) and 125 μL of DMSO were added to the 6.0 mM hydrolysis solutions. The reaction was started by addition of 62.5 μL of PLE in phosphate buffer (100 units/mL), and the mixture was incubated at 800 rpm at 37 °C in a thermomixer. (1). At different times, aliquots (75 μL) were taken and stopped by the addition of […] of MeOH. The mixture was stored in liquid nitrogen. When testing, samples were warmed up to room temperature, and 60 μL of the liquid was directly injected into HPLC analysis. (2). 40 μL for each extraction was stored in liquid nitrogen. When testing, samples were warmed up to room temperature, and 30 μL of the liquid was taken and injected into the analytical RP-18-HPLC instrument. The calculation of t1/2 was performed analogously to that for the chemical hydrolysis studies.

Series [6] is described as follows: Chemical hydrolysis in aqueous buffers (PBS pH 7.3 / 8.0, citrate buffer pH 2.0), RP18-HPLC. The format is physicochemical. Particulars: for half-life at 1.9 mM: phosphate buffered saline. The method, then: All metabolite mixtures were analyzed and quantified by means of analytical RP18-HPLC (UV detection).
The solution was incubated at 37 °C in a thermomixer. […] for each extraction and stored at −30 °C. When testing, samples were warmed up to room temperature, and 25 or 20 μL of the liquid was taken and injected into the analytical RP-18-HPLC instrument. Further aliquots were taken for monitoring the kinetic hydrolysis.
5.88 g of citric acid and 3.58 g of NaCl were dissolved in 82 mL of hydrochloric acid (0.1 mol/L). Then, sodium hydroxide was added to adjust the pH to 2.0.

Series [7] is described as follows: Cytotoxicity, inhibition of CEM/TK– cell proliferation. The format is cell-based. Particulars: human, CEM/TK– cells (CD4+ T-cells), read-out: toxicity CC50.
In series [8] the test system is HIV-1 (HE). Description: Anti-HIV replication assay, HIV-1 (HE) in wild-type CEM/0 cells. The format is cell-based. The settings on record: Human immunodeficiency virus 1, CCRF-CEM; wild-type CEM/0 cells; mean ± SD, n = 2–3; read-out: HIV-1 (HE) EC50. As for the experimental part:
as §2, with “microscopically. The EC50 (50% effective concentration) was defined as the compound concentration required to inhibit HIV-induced giant cell formation by 50%.” for “microscopically.”

The subject of series [9] is HIV-2 (ROD). Description: Anti-HIV replication assay, HIV-2 (ROD) in thymidine kinase-deficient CEM/TK– cells. It counts as cell-based. The settings on record: for selectivity index (SI): CC50/EC50, HIV-2 (ROD) in CEM/TK– cells; for EC50: Human immunodeficiency virus 2, CEM/TK– cells, mean ± SD, n = 2–3, read-out: CEM/TK– HIV-2 (ROD) EC50. The method, then: as §2
The test system of series [10] is pig liver esterase (PLE). More on the design: method as in PMID 26503889. The settings on record: cited from earlier work.
For series [11] the following is noted: PBS; cited from earlier work.
For a further series, the system named is CD4+ T-cell (CEM). The settings on record: CEM cell proliferation; read-out: toxicity CC50; cited from earlier work.
For series [12], the system named is HIV-1 (HE). Particulars: CEM/0 cells; cited from earlier work.
The mark [13] stands for this setting: 25 mM PBS, pH 7.3, 37 °C, read-out: PBS pH 7.3 t1/2 (converted).
Where [14] appears, read: PBS, pH 8.0, 37 °C, read-out: PBS pH 8.0 t1/2 (converted).

Molecules are shown by their SMILES. Read-outs that look alike come from different tables or passages of the source. Where only a bound is given, the exact number is not on record here.

A word on the CC50: it is the concentration at which the toxic effect on the cells reaches its halfway point. Take `CCCCCCCCCCCCCCCCCCOP(=O)(OCc1ccc(OC(=O)CCCC)cc1)OP(=O)(O)OP(=O)(O)OP(=O)(O)OC[C@@H]1C=C[C@H](n2cc(C)c(=O)[nH]c2=O)O1` (stereo partly shown) [compound 6, δ-(AB-C4; alkyl-C18)-d4T4P]: the CC50 turned out to be 40.5 µM in series [1] and 48 µM in series [7]. The half-life at 0.86 mM in series [2] is 6.67 h; in series [4], 2.1 h. Besides, the “selectivity index (SI)” value in the series on HIV-2 (ROD) [3] is recorded as 643; in the series on HIV-2 (ROD) [9], 813. The EC50 in the series on HIV-2 (ROD) [3] amounted to 0.063 ± 0.032 µM; in the series with HIV-1 (HE) [8] it was 0.083 ± 0.018 µM; with HIV-2 (ROD) [9], 0.059 ± 0.054 µM. Besides, in the series on pig liver esterase (PLE) [5], the half-life at 0.45 mM is 1.06 h. This compound had a half-life in [6] (25 mM citrate buffer, pH 2.0, 37 °C) of 27 h. For the same compound, the half-life at 1.9 mM in series [6] (setting [13]) is 77 h; in series [6] (setting [14]), 99 h.
Turning to `CCCCCCCCCC(=O)Oc1ccc(COP(=O)(OCc2ccc(OC(=O)CCCCCCCCC)cc2)OP(=O)(O)OP(=O)(O)OC[C@@H]2C=C[C@H](n3cc(C)c(=O)[nH]c3=O)O2)cc1` [1a, γ-(AB-C9; AB-C9)-d4TTP, reference compound], the CC50 in series [1] was determined as 73.2 µM; in series [7] it was 50 µM. Moreover, the “selectivity index (SI)” value is recorded as 1109 in the series with HIV-2 (ROD) [3] and 172 with HIV-2 (ROD) [9]. Further, the figures for the EC50 in the series with HIV-2 (ROD) [3], in the series on HIV-1 (HE) [8] and in the series with HIV-2 (ROD) [9] were 0.066 ± 0.026 µM, 0.042 ± 0.02 µM and 0.29 ± 0.19 µM, respectively. The “PLE t1/2” value in the series with pig liver esterase (PLE) [10] is 0.082[43] h. In series [6] (setting [14]), the half-life at 1.9 mM is 68 h. Besides, in series [11], the “PBS pH 7.3 t1/2” value is 44[43] h.
Consider `CCCCCCCCCC(=O)Oc1ccc(COP(=O)(OCc2ccc(OC(=O)CCCCCCCCC)cc2)OP(=O)(O)OP(=O)(O)OP(=O)(O)OC[C@@H]2C=C[C@H](n3cc(C)c(=O)[nH]c3=O)O2)cc1` [compound 8, δ-(AB-C9; AB-C9)-d4T4P], for which the CC50 in series [1] stood at 45 µM; in series [7], 50 µM. For the same compound, the half-life at 0.86 mM was 1.37 h in series [2] and 2.8 h in [4]. The “selectivity index (SI)” value in the series with HIV-2 (ROD) [3] amounted to 173; in the series on HIV-2 (ROD) [9] it was 11. The EC50 in the series with HIV-2 (ROD) [3] is 0.26 ± 0.14 µM; with HIV-1 (HE) [8], 0.39 ± 0.16 µM; with HIV-2 (ROD) [9], 4.44 ± 1.54 µM. Further, the half-life at 0.45 mM with pig liver esterase (PLE) [5] was 0.07 h. For the same compound, the half-life at 1.9 mM in series [6] (setting [13]) is 26 h.
On to `CCCCCCCCCCCCCCCCCCP(=O)(OCc1ccc(OC(=O)CCCC)cc1)OP(=O)(O)OP(=O)(O)OC[C@@H]1C=C[C@H](n2cc(C)c(=O)[nH]c2=O)O1` (stereo partly shown) [2b, γ-(AB-C4)-γ-C-(C18)-d4TTP], for which the 50% cytotoxic concentration (CC50) in the series on CD4+ T-cell (CEM) was 19 µM. Besides, the EC50 with HIV-1 (HE) [12] is 0.0074 ± 0.0014 µM. For the same compound, in series [11], the “PBS pH 7.3 t1/2” value is reported as 646 h.
On to `CCCCCCCCCCCCCCCCCCP(=O)(OCCCC)OP(=O)(O)OP(=O)(O)OC[C@@H]1C=C[C@H](n2cc(C)c(=O)[nH]c2=O)O1` (stereo partly shown) [3b, γ-(alkyl-C4)-γ-C-(alkyl-C18)-d4TTP], for which the CC50 with CD4+ T-cell (CEM) was 33 µM. In addition, the “PBS pH 7.3 t1/2” value in [11] is listed as greater than 1700 h.
Regarding `CCCCCCCCCCCCCCCCCCOP(=O)(OCCCC)OP(=O)(O)OP(=O)(O)OC[C@@H]1C=C[C@H](n2cc(C)c(=O)[nH]c2=O)O1` (stereo partly shown) [3a, γ-(alkyl-C4; alkyl-C18)-d4TTP], the CC50 with CD4+ T-cell (CEM) was 30 µM.

These data come from PMC10895676, “Antiviral Activity of Lipophilic Nucleoside Tetraphosphate Compounds” (Journal of Medicinal Chemistry, 2024).
